Measured values from US11098040B2, “Compounds and methods of use” (Ferro Therapeutics, Inc., priority 2018, dated 2021).
Read-outs that look alike come from different tables or passages of the source.

Key:
[1] = Pharmacokinetic (PK) studies via intravenous infusion, Sprague-Dawley rat; assay type: in vivo; details: male, plasma, one rat
Experimental: Test compound dosing solutions were administered via intravenous infusion to Sprague-Dawley male rat.
Into 50 μL of test compound plasma samples were added 5 μL DMSO then 200 μL of 25 ng/mL internal standard (ITSD) (Verapamil) in MeOH/acetonitrile (1:1, v/v). […] The limit of quantification (LOQ) was 1 ng/mL.
The lower limit of quantification was 1-10 ng. A typical HPLC gradient table is described below: […]
The PK profiles of compound 24 and compound 28 are shown below. […] The volume of injection via intravenous infusion route was adjusted for a dose of 2, 4 and 8 mg/kg. […] The limit of quantification was 1 ng/mL.

H1299 = experiment: Cell viability assay (CellTiter Glo), lung cancer cell line H1299; assay type: cell-based; details: Homo sapiens, NCI-H1299, 96 hours
Outline: (§1)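 Seeding density was adjusted per line, and cells grew overnight before treatment with a 3-fold serial dilution (9 points, starting at up to 30 μM) in duplicate; DMSO stayed at 0.25% or below. Luminescence was measured 10 min after CellTiter Glo addition at 96 h.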

H2228 = experiment: Cell viability assay (CellTiter Glo), lung cancer cell line H2228; assay type: cell-based; details: Homo sapiens, NCI-H2228
Outline: as §1

MDA-MB-435S = experiment: Cell viability assay (CellTiter Glo), melanoma cell line MDA-MB-435S; assay type: cell-based; details: Homo sapiens, 96 hours
Outline: as §1

Huh7 = experiment: Cell viability assay (CellTiter Glo), hepatocellular carcinoma Huh7; assay type: cell-based; details: Homo sapiens, Huh-7, 96 hours
Outline: as §1

PANC1 = experiment: Cell viability assay (CellTiter Glo), pancreatic cell line PANC1; assay type: cell-based; details: Homo sapiens, PANC-1, 96 hours
Outline: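 PANC1 cells seeded overnight at 37 °C, then exposed for 96 h to a 9-point 3-fold dilution series from up to 30 μM, final DMSO ≤0.25%. Viability read by CellTiter Glo luminescence. % inhibition relative to DMSO-only wells, fitted to IC50, relative IC50 or % top inhibition.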

MiaPaCa-2 = experiment: Cell viability assay (CellTiter Glo), pancreatic carcinoma MiaPaCa-2; assay type: cell-based; details: Homo sapiens
Outline: (§2)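 MiaPaCa-2 and AsPC-1 cells were seeded overnight at 37 °C and exposed for 96 h to 9-point, 3-fold dilutions from up to 30 μM (final DMSO ≤0.25%). CellTiter Glo luminescence was read, and inhibition was calculated relative to DMSO-only cells. IC50, relative IC50 or % top inhibition was derived.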

AsPC-1 = experiment: Cell viability assay (CellTiter Glo), pancreatic adenocarcinoma AsPC-1; assay type: cell-based; details: Homo sapiens, ASPC1
Outline: as §2

MV-4-1 = experiment: Cell viability assay (CellTiter Glo), leukemia cell line MV-4-1; assay type: cell-based; details: 96 hours
Outline: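 Leukemia cells seeded at 5000–10000/well (suspension) and incubated 96 h with compound, 9-point 3-fold dilution from top concentration up to 30 μM, final DMSO ≤0.25%. Luminescence read by CellTiter-Glo; inhibition relative to DMSO-only Max, giving IC50, relative IC50 or % top inhibition.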

HL-60 = experiment: Cell viability assay (CellTiter Glo), leukemia cell line HL-60; assay type: cell-based; details: Homo sapiens, 96 hours
Experimental: (§3) Cell viability assay was performed to assess the potency of the compounds in human cancer cell lines KP4 (pancreatic ductal adenocarcinoma), MiaPaCa-2 (pancreatic carcinoma), AsPC-1 (pancreatic adenocarcinoma, ascites), 143B (osteosarcoma), and SJSA-1 (osteosarcoma). Selected compounds were also assayed in a human breast epithelial cell line MCF-10A, a nontumorigenic cell line as a control to assess differential activity. Cells at a density of 500-5,000 cells/well were seeded in 96-well plates and incubated at 37° C. overnight. A series of 9 different concentrations of compound stocks (500×) were created by 3-fold serial dilution in DMSO. These compounds were further diluted in culture media and then added to cells so that the final DMSO concentration was equal to 0.25% or less. After 96 hours of incubation, 50 μL of CellTiter Glo reagent (Promega) was added to each well and luminescence was measured after 10 minutes using EnVision (PerkinElmer). Compounds titrated from top concentration of up to 30 μM. The select compounds were tested initially from 30 μM as the top concentration in duplicates (range of 4.6 nM-30 μM). […] Luminescence from cells treated with DMSO alone was set as Max and % of inhibition was calculated as follows: Inhibition %=(Max-Sample value)/Max*100. Data was analyzed using XL-fit software (ID Business Solutions Ltd.). IC50, relative IC50, or % of top inhibition was calculated.
(§4) A group of selected analogs were further profiled in cell viability assays described above in multiple additional cancer cell lines, including lung cancer, melanoma, hepatocarcinoma, pancreatic cancer, leukemia, lymphoma, ovarian cancer, breast cancer, colon cancer, and sarcoma cell lines. Initial cell seeding numbers were adjusted for each cell line. Typically, 500-5000 cells/well for adherent cells and 5000-10000/well for suspension cells were seeded in 96-well plates.
(§5) The results of the assay in the leukemia cell lines are given in Table 16a for MV-4-1 and Table 16b for HL-60 and Kasumi-1.

Kasumi-1 = experiment: Cell viability assay (CellTiter Glo), leukemia cell line Kasumi-1; assay type: cell-based; details: Homo sapiens, 96 hours
Experimental: as §3, §4, §5

REC-1 = experiment: Cell viability assay (CellTiter Glo), lymphoma cell line REC-1; assay type: cell-based; details: Homo sapiens, Rec1, 96 hours
Outline: as §1

Raji = experiment: Cell viability assay (CellTiter Glo), lymphoma cell line Raji; assay type: cell-based; details: Homo sapiens, 96 hours
Outline: as §1

SK-OV-3 = experiment: Cell viability assay (CellTiter Glo), ovarian cancer cell line SK-OV-3; assay type: cell-based; details: Homo sapiens, 96 hours
Outline: as §1

HCC1954 = experiment: Cell viability assay (CellTiter Glo), breast cancer cell line HCC1954; assay type: cell-based; details: Homo sapiens, 96 hours
Outline: as §1

HT29 = experiment: Cell viability assay (CellTiter Glo), colon cancer cell line HT29; assay type: cell-based; details: Homo sapiens, HT-29, 96 hours
Outline: as §1

SW480 = experiment: Cell viability assay (CellTiter Glo), colon cancer cell line SW480; assay type: cell-based; details: Homo sapiens, 96 hours
Experimental: as §3, §4

HT-1080 luc2 = experiment: Cell viability assay (CellTiter Glo), fibrosarcoma HT-1080 luc2; assay type: cell-based; details: Homo sapiens
Outline: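 HT-1080 luc2 fibrosarcoma cells seeded overnight, then exposed 96 h at 37° C to 9-point 3-fold dilutions (top up to 30 μM; DMSO ≤0.25% final). CellTiter Glo luminescence; % inhibition relative to DMSO-only wells, fitted to IC50, relative IC50 or % top inhibition.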

143B = experiment: Cell viability assay (CellTiter Glo), osteosarcoma 143B; assay type: cell-based; details: Homo sapiens
Outline: (§6)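 Cells seeded at 500-5,000/well overnight, then 96 h exposure to 9-point 3-fold dilutions from up to 30 μM (4.6 nM-30 μM), final DMSO ≤0.25%. Viability by CellTiter Glo luminescence; inhibition relative to DMSO-only cells, yielding IC50, relative IC50 or % top inhibition.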

SJSA-1 = experiment: Cell viability assay (CellTiter Glo), osteosarcoma SJSA-1; assay type: cell-based; details: Homo sapiens, 96 hours
Outline: as §6

MCF-10A = experiment: Cell viability assay (CellTiter Glo), non-tumorigenic breast epithelial cell line MCF-10A; assay type: cell-based; details: Homo sapiens, 96 hours
Outline: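 MCF-10A cells (500-5,000/well) treated 96 h at 37° C with 9-point 3-fold dilutions from up to 30 μM, ≤0.25% DMSO, in duplicate. Viability by CellTiter Glo luminescence; % inhibition versus DMSO-only wells gave IC50, relative IC50 or % top inhibition. Paclitaxel positive control.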

[2] = mouse, in vivo, ip, 15 mg/kg
Experimental: (§9) Test compounds were dissolved either in 20% (w/w) sulfobutylether-β-cyclodextrin (SBECD) pH 3-7 aqueous solution, or 5% DMSO/(30-50%) PEG400/(65-45%) water. Test compound dosing solutions were administered intraperitoneally to Balb/c nude male mice. Blood samples were collected at various time points with EDTA-K2 as anti-coagulant on ice, and centrifuged to obtain plasma samples. The plasma samples were stored at −20° C. until analysis.
(§10) Into 10 μL of test compound plasma samples were added 2 μL DMSO then 200 μL of 5 ng/mL internal standard (VTSD) (Terfenadine) in MeOH/acetonitrile. The mixture was vortexed for 1 minute and centrifuged at 4000 rpm for 15 minutes. Calibration standards were prepared by spiking known amount of test compounds into blank plasma samples. The supernatant solution was diluted 5 times with Acetonitrile/H2O (with 0.1% formic acid, 1:1, v/v), and this is the solution for LC-MS/MS analysis. The limit of quantification (LOQ) was 1 ng/mL.
(§11) Typical HPLC mobile phases were mobile phase of 5 mM NH4OAc (with 0.05% formic acid); and mobile phase B of acetonitrile (with 0.1% formic acid). The HPLC column was Kinetex C18 (30 mm×3.00 mm). Mass spectrometer was tuned for each compound in the Multiple Reaction Monitoring (MRM) scanning mode and in the electrospray ionization mode. The lower limit of quantification was 1-10 ng.
(§12) In this study, K601 (RSL3) was formulated in 5% DMSO/30% PEG 400/65% water at 1.5 mg/mL. The volume of injection via intraperitoneal route was 10 mL/kg for a dose of 15 mg/kg. […] The limit of quantification (LOQ) was 1 ng/mL.
(§13) In this study, the compound was formulated in 20% (w/w) sulfobutylether-β-cyclodextrin (SBECD), pH 5 aqueous solution at 1.5 mg/mL. The volume of injection via intraperitoneal route was 10 mL/kg for a dose of 15 mg/kg. The concentration of test compounds in plasma were analyzed by LC-MS with the method described above. The limit of quantification was 1 ng/mL.
(§14) It was formulated in 5% DMSO/50% PEG400/45% Water pH adjusted to 4 with HCl as an aqueous solution at 1.0 mg/mL. The volume of injection via intraperitoneal route was 15 mL/kg for a dose of 15 mg/kg. The concentration of test compounds in plasma were analyzed by LC-MS with the method described above. The limit of quantification was 1 ng/mL. […] The limit of quantification was 1 ng/mL.
(§15) Compounds 24 and 28 were formulated in 20% (w/w) sulfobutylether-β-cyclodextrin (SBECD) with pH 3 and pH 4, respectively, as an aqueous solution at 1.0 mg/mL. Compound 67 was in 5% DMSO/50% PEG 400/45% water pH 4 (adjusted with 12 N HCl) aqueous solution at 1.0 mg/mL. The injection volume via intraperitoneal route was 10 mL/kg for a dose of 15 mg/kg. The concentration of test compounds in plasma were analyzed by LC-MS with the method described above. The limit of quantification was 1 ng/mL.

in vivo = details: male, Balb/c nude, mouse, ip, 15 mg/kg, Calculated Concentration
Experimental: as §9, §10, §11, §12, §13, §14, §15

Panc 02.13 = experiment: Cell proliferation assay, pancreatic cancer cell line Panc 02.13; assay type: cell-based
Experimental: (§7) Cell viability assay was performed to assess the potency of the compounds in human cancer cell lines 786-O (renal cell carcinoma) and SJSA-1 (osteosarcoma). Additional cell lines, such as those described above in Example 4 as well as various others, e.g., pancreatic cancer cell lines (Panc 02.13, BxPC-3, Panc 12, Panc 02.03, Panc 6.03, PSN-1, HPAC, and Capan-1) and prostate cancer cell lines (PC-3, DU145, 22Rv1, NCI-H660, BPH1, LNCaP, BM-1604, and MDA PCa 2b), were tested for select compounds as shown in Table 25.
(§8) The cell proliferation assays for the compounds shown Table 25 was performed according to the protocols described herein, including Examples 4 and 6.

BxPC-3 = experiment: Cell proliferation assay, pancreatic cancer cell line BxPC-3; assay type: cell-based; details: Homo sapiens
Experimental: as §7, §8

Panc 12 = experiment: Cell proliferation assay, pancreatic cancer cell line Panc 12; assay type: cell-based; details: Cell Line Panc 8
Experimental: as §7, §8

Panc 02.03 = experiment: Cell proliferation assay, pancreatic cancer cell line Panc 02.03; assay type: cell-based; details: Homo sapiens
Experimental: as §7, §8

Panc 6.03 = experiment: Cell proliferation assay, pancreatic cancer cell line Panc 6.03; assay type: cell-based
Experimental: as §7, §8

PSN-1 = experiment: Cell proliferation assay, pancreatic cancer cell line PSN-1; assay type: cell-based; details: Homo sapiens, PSN1
Experimental: as §7, §8

HPAC = experiment: Cell proliferation assay, pancreatic cancer cell line HPAC; assay type: cell-based; details: Homo sapiens
Experimental: as §7, §8

Capan-1 = experiment: Cell proliferation assay, pancreatic cancer cell line Capan-1; assay type: cell-based; details: Homo sapiens
Experimental: as §7, §8

U-2 OS = experiment: Cell proliferation assay, U-2 OS (Table 25); assay type: cell-based; details: Homo sapiens, U2OS; Cell Line U-2 OS
Experimental: as §7, §8

COC(=O)[C@H]1Cc2c([nH]c3ccccc23)[C@H](c2ccc(S(=O)(=O)N[C@]34C[C@H]5C[C@H](C[C@H](C5)C3)C4)cc2)N1C(=O)CCl [Example 24]
concentration at 1.0167 hr ([1]; 1 hour-IV infusion 2 mg/kg): 0.0517 µg/mL
concentration at 1.0833 hr ([1]; 1 hour-IV infusion 2 mg/kg): 0.0141 µg/mL
concentration at 1.25 hr ([1]; 1 hour-IV infusion 2 mg/kg): 0.00495 µg/mL
concentration at 1.5 h ([1]; 1 hour-IV infusion 2 mg/kg): 0.00218 µg/mL
concentration at 1.0167 hr ([1]; 1 hour-IV infusion 4 mg/kg): 0.159 µg/mL
concentration at 1.0833 hr ([1]; 1 hour-IV infusion 4 mg/kg): 0.0364 µg/mL
concentration at 1.25 hr ([1]; 1 hour-IV infusion 4 mg/kg): 0.0138 µg/mL
concentration at 1.5 h ([1]; 1 hour-IV infusion 4 mg/kg): 0.00507 µg/mL
concentration at 2 h ([1]; 1 hour-IV infusion 4 mg/kg): 0.00262 µg/mL
concentration at 1.0167 hr ([1]; 1 hour-IV infusion 8 mg/kg): 0.259 µg/mL
concentration at 1.0833 hr ([1]; 1 hour-IV infusion 8 mg/kg): 0.0975 µg/mL
concentration at 1.25 hr ([1]; 1 hour-IV infusion 8 mg/kg): 0.034 µg/mL
concentration at 1.5 h ([1]; 1 hour-IV infusion 8 mg/kg): 0.0173 µg/mL
concentration at 2 h ([1]; 1 hour-IV infusion 8 mg/kg): 0.00652 µg/mL
concentration at 3 h ([1]; 1 hour-IV infusion 8 mg/kg, 3 hr): 0.00292 µg/mL
IC50 (H1299): 0.003 µM
IC50 (H2228; lung cancer cell line, 96 hours, CellTiter Glo, read-out: IC50 H2228): 0.018 µM
IC50 (MDA-MB-435S): 0.004 µM
IC50 (Huh7): 0.022 µM
IC50 (PANC1): 0.019 µM
IC50 (MiaPaCa-2; MIA PaCa-2, pancreatic carcinoma, 96 hours, CellTiter Glo, read-out: IC50 MiaPaCa-2): 0.002 µM
IC50 (AsPC-1; pancreatic adenocarcinoma, ascites, 96 hours, CellTiter Glo, read-out: IC50 AsPC-1): 0.019 µM
IC50 (MV-4-1): 0.021 µM
IC50 (HL-60): 0.016 µM
IC50 (Kasumi-1): 0.088 µM
IC50 (REC-1): 0.033 µM
IC50 (Raji): 0.009 µM
IC50 (SK-OV-3): 0.017 µM
IC50 (HCC1954): 0.039 µM
IC50 (HT29): 0.087 µM
IC50 (SW480): 0.167 µM
IC50 (HT-1080 luc2; fibrosarcoma expressing a luciferase gene, 96 hours, CellTiter Glo, read-out: IC50 HT-1080 luc2): 0.015 µM
IC50 (143B; 96 h, osteosarcoma, 96 hours, CellTiter Glo, read-out: IC50 143B): 0.004 µM
IC50 (SJSA-1): 0.013 µM
IC50 (MCF-10A): 0.41 µM
exposure (Cmax, AUC) compared with K601 (RSL3) [2]: higher exposure
concentration at 0.5 h (in vivo): 0.332 µg/mL
concentration at 1 h (in vivo): 0.355 µg/mL
concentration at 2 h (in vivo): 0.0505 µg/mL
concentration at 4 h (in vivo): 0.00341 µg/mL
concentration at 0.5 h (in vivo; Mean): 0.464 µg/mL
concentration at 1 h (in vivo; Mean): 0.317 µg/mL
concentration at 2 h (in vivo; Mean): 0.0445 µg/mL
concentration at 4 h (in vivo; Mean): 0.00456 µg/mL

CC[C@H]1Cc2c([nH]c3ccccc23)[C@H](c2ccc(N3CCOCC3)cc2)N1C(=O)CCl [Example 117]
IC50 (H2228; Cell Line H2228, read-out: IC50): 0.00337 µM
IC50 (MiaPaCa-2; Cell Line Mia PaCa-2, read-out: IC50): 0.057 µM
IC50 (AsPC-1; Cell Line AsPC-1, read-out: IC50): 0.0127 µM
IC50 (HT-1080 luc2; Cell Line HT1080, read-out: IC50): 0.00716 µM
IC50 (143B; Cell Line 143B, read-out: IC50): 0.0114 µM
IC50 (Panc 02.13): 0.216 µM
IC50 (BxPC-3): 0.0867 µM
IC50 (Panc 12): 0.0148 µM
IC50 (Panc 02.03): 0.148 µM
IC50 (Panc 6.03): 0.0328 µM
IC50 (PSN-1): 0.0462 µM
IC50 (HPAC): 0.0484 µM
IC50 (Capan-1): 0.261 µM
IC50 (U-2 OS): 3.6 µM
